Like-named read-outs stand apart in the source and are kept apart here.
Tests used:
Pyricularia oryzae = assay type: in vivo, Pyricularia oryzae (on rice seedlings); details: 100 = 100% disease control, 0 = no control, # = significant activity
Phytophthora infestans = assay type: in vivo, Phytophthora infestans (on tomato seedlings); details: 200 ppm test suspension sprayed to run-off (equivalent to 500 g/ha) on tomato seedlings; 100 = 100% disease control, 0 = no control; # = significant activity
Puccinia recondita = assay: Test B: wheat leaf rust, preventive spray on wheat seedlings, disease rating; assay type: in vivo, Puccinia recondita (on wheat seedlings); details: 200 ppm test suspension sprayed to run-off (equivalent to 500 g/ha) on wheat seedlings; 100 = 100% disease control, 0 = no control; # = significant activity
Source text: (§1) Test compounds were first dissolved in acetone in an amount equal to 3% of the final volume and then suspended at a concentration of 200 ppm in purified water containing 250 ppm of the surfactant Trem® 014 (polyhydric alcohol esters). The resulting test suspensions were then used in the following test. Spraying these 200 ppm test suspensions to the point of run-off on the test plants is the equivalent of a rate of 500 g/ha.
(§2) The test suspension was sprayed to the point of run-off on wheat seedlings. The following day the seedlings were inoculated with a spore suspension of Puccinia recondita (the causal agent of wheat leaf rust) and incubated in a saturated atmosphere at 20° C. for 24 h, and then moved to a growth chamber at 20° C. for 6 days, after which disease ratings were made.
(§3) Results for Tests A-E are given in Table A. In the table, a rating of 100 indicates 100% disease control and a rating of 0 indicates no disease control (relative to the controls). A dash (-) indicates no test results. ND indicates disease control not determined due to phytotoxicity. # indicates significant activity.

Botrytis cinerea = assay: Test E: gray mold, preventive spray on cucumber seedlings, disease rating; assay type: in vivo, Botrytis cinerea (on cucumber seedlings); details: 200 ppm test suspension sprayed to run-off (equivalent to 500 g/ha) on cucumber seedlings; 100 = 100% disease control, 0 = no control; # = significant activity
Source text: as §1
as §2, with “cucumber” for “wheat”, “Botrytis cinerea” for “Puccinia recondita”, “gray mold on many crops)” for “wheat leaf rust)”, “48” for “24”, “and” for “and then”, “5” for “6”
as §3

[1] = system: Erysiphe graminis f. sp. tritici; assay: Test A: wheat powdery mildew, preventive spray on wheat seedlings, disease rating; assay type: in vivo, Erysiphe graminis f. sp. tritici (on wheat seedlings); details: 200 ppm test suspension sprayed to run-off (equivalent to 500 g/ha) on wheat seedlings; 100 = 100% disease control, 0 = no control; # = significant activity
Source text: as §1
The test suspension was sprayed to the point of run-off on wheat seedlings. The following day the seedlings were inoculated with a spore dust of Erysiphe graminis f. sp. tritici, (the causal agent of wheat powdery mildew) and incubated in a growth chamber at 20° C. for 7 days, after which disease ratings were made.
as §3

[2] = 200 ppm test suspension sprayed to run-off (equivalent to 500 g/ha) on rice seedlings
[3] = Tested at 40 ppm, rice seedlings

Compound | Test C disease control rating (rice blast) (Pyricularia oryzae; [2]) | Test D disease control rating (potato and tomato late blight) (Phytophthora infestans) | Test B disease control rating (wheat leaf rust) (Puccinia recondita) | Test E disease control rating (gray mold) (Botrytis cinerea) | Test A disease control rating (wheat powdery mildew) [1] | Test C disease control rating (rice blast) (Pyricularia oryzae; [3])
CC(NC(=O)C1(C(F)(F)F)CC(C)(Cl)C1)c1ccc(Br)cc1 (mixture of isomers) [compound 1] | 100# (a rating of 100 indicates 100% disease control) |  |  |  |  | 
CC(CCc1ccccc1)NC(=O)C1(C(F)(F)F)CC(C)(Cl)C1 (mixture of isomers) [compound 2] | 64# % |  |  |  |  | 
CC(NC(=O)C1(C(F)(F)F)CC(C)(Cl)C1)c1ccc(Cl)cc1 (centres unmarked) [Compound 7] | 100# (a rating of 100 indicates 100% disease control) |  |  |  |  | 
CC(COc1cc(F)ccc1F)NC(=O)C1(C)CC(C)(Cl)C1 (centres unmarked) [Compound 30] | 100# (a rating of 100 indicates 100% disease control) | 0 (a rating of 0 indicates no disease control (relative to the controls)) | 0 (a rating of 0 indicates no disease control (relative to the controls)) | 94# % | 0 (a rating of 0 indicates no disease control (relative to the controls)) | 
CC(NC(=O)C1(C(F)(F)F)CC(C)(Cl)C1)c1ccc(Br)cc1 (centres unmarked) [compound 4] | 100# (a rating of 100 indicates 100% disease control) |  |  |  |  | 
CC(NC(=O)C1(C(F)(F)F)CC(C)(Cl)C1)c1ccc(Br)cc1 (centres unmarked) [compound 5] | 100# (a rating of 100 indicates 100% disease control) |  |  |  |  | 
CC(NC(=O)C1(C(F)(F)F)CC(C)(Cl)C1)c1ccc(Cl)cc1 (centres unmarked) [compound 6] | 98# % |  |  |  |  | 
CC(NC(=O)C1(C(F)(F)F)CC(C)(Cl)C1)c1ccc(Cl)cc1Cl (centres unmarked) [compound 8] | 100# (a rating of 100 indicates 100% disease control) | 24% | 0 (a rating of 0 indicates no disease control (relative to the controls)) | 0 (a rating of 0 indicates no disease control (relative to the controls)) | 0 (a rating of 0 indicates no disease control (relative to the controls)) | 
CC(NC(=O)C1(C(F)(F)F)CC(C)(Cl)C1)c1ccc(Cl)cc1Cl (centres unmarked) [compound 9] | 100# (a rating of 100 indicates 100% disease control) | 0 (a rating of 0 indicates no disease control (relative to the controls)) | 0 (a rating of 0 indicates no disease control (relative to the controls)) | 0 (a rating of 0 indicates no disease control (relative to the controls)) | 0 (a rating of 0 indicates no disease control (relative to the controls)) | 
CC(NC(=O)C1CC(C)(Cl)C1)c1ccc(Br)cc1 (centres unmarked) [compound 10] | 53% | 42% | 0 (a rating of 0 indicates no disease control (relative to the controls)) | 0 (a rating of 0 indicates no disease control (relative to the controls)) | 74% | 
CC(NC(=O)C1CC(C)(Cl)C1)c1ccc(Br)cc1 (centres unmarked) [compound 11] | 53% | 60% | 0 (a rating of 0 indicates no disease control (relative to the controls)) | 0 (a rating of 0 indicates no disease control (relative to the controls)) | 57% | 
CC(NC(=O)C1(Cl)CC(Cl)(Cl)C1)c1ccc(Br)cc1 (centres unmarked) [compound 12] | 100# (a rating of 100 indicates 100% disease control) | 11% | 0 (a rating of 0 indicates no disease control (relative to the controls)) | 0 (a rating of 0 indicates no disease control (relative to the controls)) | 99% | 
CC(NC(=O)C1(C)CC(C)(Cl)C1)c1ccc(Br)cc1 (centres unmarked) [compound 13] | 94# % | 0 (a rating of 0 indicates no disease control (relative to the controls)) | 0 (a rating of 0 indicates no disease control (relative to the controls)) | 0 (a rating of 0 indicates no disease control (relative to the controls)) | 0 (a rating of 0 indicates no disease control (relative to the controls)) | 
CC(NC(=O)C1(C)CC(C)(Cl)C1)c1ccc(Br)cc1 (centres unmarked) [compound 14] | 97# % | 0 (a rating of 0 indicates no disease control (relative to the controls)) | 0 (a rating of 0 indicates no disease control (relative to the controls)) | 0 (a rating of 0 indicates no disease control (relative to the controls)) | 0 (a rating of 0 indicates no disease control (relative to the controls)) | 
CC(NC(=O)C1(Cl)CC(C)(Cl)C1)c1ccc(Br)cc1 (centres unmarked) [compound 15] |  |  |  |  |  | 94#* %
CC(NC(=O)C1(Cl)CC(C)(Cl)C1)c1ccc(Br)cc1 (centres unmarked) [compound 16] |  |  |  |  |  | 98#* %
CC(NC(=O)C1(C)CC(C)(Br)C1)c1ccc(Br)cc1 (centres unmarked) [compound 17] | 74% | 0 (a rating of 0 indicates no disease control (relative to the controls)) | 0 (a rating of 0 indicates no disease control (relative to the controls)) | 0 (a rating of 0 indicates no disease control (relative to the controls)) | 0 (a rating of 0 indicates no disease control (relative to the controls)) | 
CC(NC(=O)C1(C)CC(C)(Br)C1)c1ccc(Br)cc1 (centres unmarked) [compound 18] | 99# % | 0 (a rating of 0 indicates no disease control (relative to the controls)) | 0 (a rating of 0 indicates no disease control (relative to the controls)) | 0 (a rating of 0 indicates no disease control (relative to the controls)) | 0 (a rating of 0 indicates no disease control (relative to the controls)) | 
CC(NC(=O)C1(C)CC(C)(Cl)C1)c1ccc(Cl)cc1Cl (centres unmarked) [compound 19] | 100# (a rating of 100 indicates 100% disease control) | 0 (a rating of 0 indicates no disease control (relative to the controls)) | 0 (a rating of 0 indicates no disease control (relative to the controls)) | 0 (a rating of 0 indicates no disease control (relative to the controls)) | 33% | 
CC(NC(=O)C1(C)CC(C)(Cl)C1)c1ccc(Cl)cc1Cl (centres unmarked) [compound 20] | 100# (a rating of 100 indicates 100% disease control) | 0 (a rating of 0 indicates no disease control (relative to the controls)) | 0 (a rating of 0 indicates no disease control (relative to the controls)) | 0 (a rating of 0 indicates no disease control (relative to the controls)) | 59% | 
CC(COc1ccccc1F)NC(=O)C1(C(F)(F)F)CC(C)(Cl)C1 (centres unmarked) [compound 25] | 97# % |  |  |  |  | 
CC(COc1ccccc1F)NC(=O)C1(C(F)(F)F)CC(C)(Cl)C1 (centres unmarked) [compound 26] | 100# (a rating of 100 indicates 100% disease control) |  |  |  |  | 
(R)-N-[1-(4-bromophenyl)ethyl]-3,3-difluoro-1-methylcyclobutanecarboxamide [Example 3] | 82# % |  |  |  |  | 

Reference: patent US6504058B1 (priority 1997, dated 2003)
